The results in this text go back to patent US4027024A (priority 1972, dated 1977).

The subject of assay [1] is rats. Nature of the assay: algolytic test, analgesia evaluated by pain score scale (Table A). The note with it: for Pain units: pretr. time 1 hour, alone. It is filed as in vivo.
The nature of assay [2]: modified hot plate test, duration of effect. It is filed as in vivo. The note with it: azidocodeine alone. For orientation: Thermal pain tests record how soon the animal reacts.
The subject of assay [3] is rats. Kind of assay: hot plate test on rats, analgesic effect (Tables 1 and 2). It is filed as in vivo. As for the experimental part: Examination of PROBON'S potentiating effect upon
azidomorphine and azidocodeine, carried out on rats, by
hot plate test, compared with Algopyrine. The compounds
were administered s.c. (subcutaneously).
Examination of the potentiating effect of a few
homopyrimidazole derivatives upon axidomorphine or
azidocodeine, carried out on rats, by Hot plate test, the
compounds were administered s.c.

Assay [4] has as its system rats. The note with it: rat, in vivo.
The test system of assay [5] is rats. The conditions noted are these: rat, in vivo; for analgesic effect of the component per se (in words): sc.

Consider `COc1ccc2c3c1O[C@H]1[C@H](N=[N+]=[N-])CC[C@H]4[C@@H](C2)N(C)CC[C@@]341` [Azidocodeine], for which the Pain units turned out to be 87 Pain units in assay [1] (Azidocodeine 30 mg/kg p.o.), 38 Pain units in assay [1] (Azidocodeine 45 mg/kg p.o.) and 30 Pain units in assay [1] (Azidocodeine 60 mg/kg p.o.). Moreover, the “ED50 in the algolytic test” value in assay [1] (azidocodeine alone, from diagram plotted from Table A) amounted to 32 mg/kg. The “duration of the effect” value in assay [2] lay in the range of 2 to 2.5 h. Also, the “Analgesic effect, Hot plate test” value in assay [3] (AK 0.250 mg/kg s.c., alone) was determined as 16%.

Consider `O=C(CCCN1CCC(O)(c2ccc(Cl)cc2)CC1)c1ccc(F)cc1` [haloperidol, reference compound], for which the “Prolongation of narcotic period” value in assay [4] was 255%.

Regarding `CCOC(=O)C1CN(C)C2CCCC(C)N2C1=O` (stereo not shown) [MZ-170, 1,6-dimethyl-3-carbethoxy-4-oxo-1,2,3,6,7,8,9,10-octahydro-homopyrimidazole], the “Analgesic effect, Hot plate test” value in assay [3] (300 mg/kg s.c., alone) stood at 31%.

Consider `CCOC(=O)c1cnc2n(c1=O)C(C)CCC2` (stereo not shown) [MZ-108, 3-carbethoxy-4-oxo-6-methyl-6,7,8,9-tetrahydro-homopyrimidazole], for which the “Analgesic effect, algolytic test” value in assay [5] is 31%. For the same compound, the “Analgesic effect, Hot plate test” value in assay [3] (200 mg/kg s.c., alone) is 18%.

`Cc1c(N(C)CS(=O)(=O)O)c(=O)n(-c2ccccc2)n1C` [Algopyrin, 2,3-dimethyl-4-methylamino-1-phenyl-5-pyrazolon-N-methane-sulfonic acid, reference compound]: the “Analgesic effect, Hot plate test” value was 33% in assay [3] (150 mg/kg s.c., alone); 49% in assay [3] (200 mg/kg s.c., alone); 29% in assay [3] (AP 150 mg/kg s.c., AM --, AK dose left blank). The “analgesic potency relative to Probon (in words)” value in assay [3] (Hot plate test, rats, s.c.) is “equipotent with Probon”. Moreover, the “effect on analgesic effect of azidomorphine or azidocodeine (in words)” value in assay [3] (Hot plate test, rats, s.c.) is on record as “does not increase the analgesic effect”.

As for `CCOC(=O)c1c[n+](C)c2n(c1=O)C(C)CCC2` (stereo not shown) [MZ-144, 1,6-dimethyl-3-carbethoxy-4-oxo-6,7,8,9-tetrahydro-homopyrimidazolium-methosulphate], in assay [4], the “Prolongation of narcotic period” value is 571%. In assay [5], the “Analgesic effect, algolytic test” value stood at 59% and the “analgesic effect of the component per se (in words)” value is “ineffective”. Moreover, the Pain units in assay [1] (MZ-144 300 mg/kg p.o.) is given as 75 Pain units. For the same compound, the “Analgesic effect, Hot plate test” value in assay [3] (50 mg/kg s.c., alone) worked out at 38%.

On to `CC1CCCc2n1c(=O)c(C(=O)[O-])c[n+]2C` (stereo not shown) [MZ-211, 1,6-dimethyl-4-oxo-6,7,8,9-tetrahydro-homopyrimidazole-3-carboxylic acid], for which, in assay [5], the “Analgesic effect, algolytic test” value was 15%. Also, the “Analgesic effect, Hot plate test” value in assay [3] (50 mg/kg s.c., alone) was 38%.

As for `CN1CC[C@]23c4c5ccc(O)c4O[C@H]2[C@H](N=[N+]=[N-])CC[C@H]3[C@H]1C5` [Azidomorphine], in assay [5], the “analgesic effect of the component per se (in words)” value is “ineffective”. Also, in assay [3] (AM 0.015 mg/kg s.c., alone), the “Analgesic effect, Hot plate test” value is recorded as 22%.

`CCOC(=O)C1=CN(C)C2CCCC(C)N2C1=O` (stereo not shown) [MZ-168, 1,6-dimethyl-3-carbethoxy-4-oxo-1,6,7,8,9,10-hexahydro-homopyrimidazole]: in assay [3] (50 mg/kg s.c., alone), the “Analgesic effect, Hot plate test” value came to 23%.
